Experimental data from paper PMC10362908 (2023).

How the values were obtained:
Conditions in all cases: Na+ 10 mM; Mg2+ carried over from 12 mM annealing buffer; 5 mM TRIS pH 7.0, 20 °C; 0.5 µM DNA, 160 µM PIC; super aggregate
[1] = test system: AT + AF (DX-tile) (DNA, junction, amino modifier C6 dT at 19 of strand 5) TCAGAAGAACAAAAAAAAAA/ACGCATTTGTCGTTCTTCTGATGACCTTGCA/GTACACCTCGCTTTTTTTTTTGTGTCTGCAA/TTGCAGACACGACAAATGCGT/TGCAAGGTCCGCGAGGTGTAC; test: absorbance (580 nm aggregate peak, AF red shift)
[2] = test system: dsDNA + AF (DNA, duplex, amino modifier C6 dT at 19 of strand 1) TGCAAGGTCCGCGAGGTGTAC/GTACACCTCGCGGACCTTGCA; test: absorbance (580 nm aggregate peak, AF red shift)
[3] = test system: ssDNA + AF (Strand 5-AF) (DNA, single strand, amino modifier C6 dT at 19) TGCAAGGTCCGCGAGGTGTAC; test: absorbance (580 nm aggregate peak, AF red shift)
[4] = test system: GC + AF (DX-tile) (DNA, junction, amino modifier C6 dT at 19 of strand 5) TCAGAAGAACGCGCGCGCGC/ACGCATTTGTCGTTCTTCTGATGACCTTGCA/GTACACCTCGAGCGCGCGCGCTTGTCTGCAA/TTGCAGACAAGACAAATGCGT/TGCAAGGTCCGCGAGGTGTAC; test: absorbance (580 nm aggregate peak, AF red shift)
[5] = test system: GC (DX-tile) (DNA, junction) TCAGAAGAACGCGCGCGCGC/ACGCATTTGTCGTTCTTCTGATGACCTTGCA/GTACACCTCGAGCGCGCGCGCTTGTCTGCAA/TTGCAGACAAGACAAATGCGT/TGCAAGGTCCGCGAGGTGTAC; test: fluorescence emission (523 nm excitation), aggregate formation
[6] = test system: dsDNA (DNA, duplex) TGCAAGGTCCGCGAGGTGTAC/GTACACCTCGCGGACCTTGCA; test: as above
[7] = test system: AT (DX-tile) (DNA, junction) TCAGAAGAACAAAAAAAAAA/ACGCATTTGTCGTTCTTCTGATGACCTTGCA/GTACACCTCGCTTTTTTTTTTGTGTCTGCAA/TTGCAGACACGACAAATGCGT/TGCAAGGTCCGCGAGGTGTAC; test: as above
[8] = test system: ssDNA (DNA, single strand) TGCAAGGTCCGCGAGGTGTAC; test: as above

Measured: binding

CCN1C(=Cc2ccc3ccccc3[n+]2CC)C=Cc2ccccc21
yes: all assays above
